Data taken from patent US20120122924A1, “NAMPT INHIBITORS” (ABBOTT LABORATORIES, priority 2010, published 2012).

Target: recombinant, human, C-terminally-His tagged NAMPT (Homo sapiens, UniProt P43490)
Experiment: Time-Resolved Fluorescence Resonance Energy Transfer (TR-FRET) binding assay of NAMPT
Conditions: 6.8 nM NAMPT, 200 nM probe (Oregon Green 488-conjugated APO866), 1 nM Tb-anti-His antibody, 2-3 hours
Experimental: Determination of the utility of compounds having Formula (I) as binders to and inhibitors of NAMPT was performed using a Time-Resolved Fluorescence Resonance Energy Transfer (TR-FRET) binding assay.
Time-Resolved Fluorescence Resonance Energy Transfer (TR-FRET) Binding Assay of NAMPT
The assay was carried out in 18 uL low volume plates (Owens Corning) in reaction buffer (50 mM HEPES (NaOH), pH 7.5, 100 mM NaCl, 10 mM MgCl2, 1 mM DTT, 1% Glycerol) using 6.8 nM recombinant, human, C-terminally-His tagged NAMPT, 1 nM Tb-anti-His antibody (Invitrogen, Cat # PV5895), and 200 nM probe (Oregon Green 488-conjugated APO866; A-1251667.0). Plates were covered, and reactions were carried out for 2-3 hours. Plates were read with Envision (Laser Lantha low volume protocol) after 2 to 3 hours. Excitation was carried out at 337 nm, and the ratio of emission of Oregon Green (520 nm) to terbium (492 nm) was determined and used to calculate IC50 values of test compounds.

recombinant, human, C-terminally-His tagged NAMPT, sequence (P43490 whole entry): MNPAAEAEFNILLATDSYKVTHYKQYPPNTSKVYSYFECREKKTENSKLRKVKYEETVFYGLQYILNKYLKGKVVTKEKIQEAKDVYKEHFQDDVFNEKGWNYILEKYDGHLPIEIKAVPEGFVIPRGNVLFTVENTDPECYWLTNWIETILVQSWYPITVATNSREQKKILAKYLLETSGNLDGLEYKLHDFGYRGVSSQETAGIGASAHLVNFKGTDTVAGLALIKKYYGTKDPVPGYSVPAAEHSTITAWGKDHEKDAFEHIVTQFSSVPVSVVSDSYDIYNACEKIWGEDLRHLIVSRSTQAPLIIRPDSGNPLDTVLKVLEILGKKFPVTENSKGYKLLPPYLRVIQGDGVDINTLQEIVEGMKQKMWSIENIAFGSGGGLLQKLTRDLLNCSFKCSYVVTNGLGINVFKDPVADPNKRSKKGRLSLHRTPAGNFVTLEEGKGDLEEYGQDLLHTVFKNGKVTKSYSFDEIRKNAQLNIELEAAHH

With `O=C(NCCCc1ccccc1)c1ccc(NC(=O)N2CCc3cc(F)ccc3C2)cc1` [Example 3, 6-fluoro-N-{4-[(3-phenylpropyl)carbamoyl]phenyl}-3,4-dihydroisoquinoline-2(1H)-carboxamide] as the compound, how does the IC50 read?
Its IC50 is 13.8 nM.

With `O=C(NCc1ccccc1)c1ccc(NC(=O)N2CCc3ccccc3C2)cc1` [Example 8, N-[4-(benzylcarbamoyl)phenyl]-3,4-dihydroisoquinoline-2(1H)-carboxamide] as the compound, how does the IC50 read?
The IC50 was 23.7 nM.

How did the IC50 turn out when `O=C(NCCc1cccs1)c1ccc(NC(=O)N2CCc3ccccc3C2)cn1` [Example 22, N-(6-{[2-(2-thienyl)ethyl]carbamoyl}pyridin-3-yl)-3,4-dihydroisoquinoline-2(1H)-carboxamide] was run?
The IC50 was 309 nM.

Which IC50 does the source give for `O=C(NCCc1cccs1)c1ccc(NC(=O)N2CCc3ccc(F)cc3C2)cc1` [Example 23, 7-fluoro-N-(4-{[2-(2-thienyl)ethyl]carbamoyl}phenyl)-3,4-dihydroisoquinoline-2(1H)-carboxamide] here?
The IC50 was 366 nM.

For `CC(C)Cn1cc(-c2ccc(NC(=O)N3CCc4ccccc4C3)cc2)cn1` [Example 34, N-[4-(1-isobutyl-1H-pyrazol-4-yl)phenyl]-3,4-dihydroisoquinoline-2(1H)-carboxamide], which IC50 is on record?
The IC50 was 38.8 nM.

How did the IC50 turn out when `O=C(CCC(=O)c1cccs1)Nc1ccc(NC(=O)N2CCc3ccccc3C2)cc1` [Example 66, N-(4-{[4-oxo-4-(2-thienyl)butanoyl]amino}phenyl)-3,4-dihydroisoquinoline-2(1H)-carboxamide] was run?
Its IC50 is 15.3 nM.

`O=C(Nc1ccc(C2=CCN(Cc3ccccc3)CC2)cc1)N1CCc2ccccc2C1` [Example 52, N-[4-(1-benzyl-1,2,3,6-tetrahydropyridin-4-yl)phenyl]-3,4-dihydroisoquinoline-2(1H)-carboxamide] was tested. Which IC50 did it give?
The IC50 was 80.5 nM.

With `CCOC(=O)CCCCCNC(=O)N1CCc2ccccc2C1` [Example 60, ethyl 6-[(3,4-dihydroisoquinolin-2(1H)-ylcarbonyl)amino]hexanoate] as the compound, how does the IC50 read?
The IC50 was 1370 nM.

For `O=C(NCCc1cccs1)c1ccc(NC(=O)N2CCc3ccccc3C2)nc1` [Example 19, N-(5-{[2-(2-thienyl)ethyl]carbamoyl}pyridin-2-yl)-3,4-dihydroisoquinoline-2(1H)-carboxamide], which IC50 is on record?
Its IC50 is 195 nM.

For `O=C(NCCc1cccs1)c1ccc(NC(=O)N2CCc3ccccc3C2)cc1` [Example 17, N-(4-{[2-(2-thienyl)ethyl]carbamoyl}phenyl)-3,4-dihydroisoquinoline-2(1H)-carboxamide], which IC50 is on record?
The IC50 was 178 nM.

For `O=C(Nc1ccc(NC(=O)N2CCc3ccccc3C2)cc1)C1CCCCC1` [Example 78, N-{4-[(cyclohexylcarbonyl)amino]phenyl}-3,4-dihydroisoquinoline-2(1H)-carboxamide], which IC50 is on record?
The IC50 was 66.3 nM.

`CC(C)CCNC(=O)Cc1ccc(NC(=O)N2CCc3ccccc3C2)cc1` [Example 29, N-(4-{2-[(3-methylbutyl)amino]-2-oxoethyl}phenyl)-3,4-dihydroisoquinoline-2(1H)-carboxamide] was tested. Which IC50 did it give?
Its IC50 is 1500 nM.

How did the IC50 turn out when `O=C(CCC(F)(F)F)Nc1ccc(NC(=O)N2CCc3ccccc3C2)cc1` [Example 73, N-{4-[(4,4,4-trifluorobutanoyl)amino]phenyl}-3,4-dihydroisoquinoline-2(1H)-carboxamide] was run?
Its IC50 is 33.2 nM.

For `CCn1cc(-c2ccc(NC(=O)N3CCc4ccccc4C3)cc2)cn1` [Example 40, N-[4-(1-ethyl-1H-pyrazol-4-yl)phenyl]-3,4-dihydroisoquinoline-2(1H)-carboxamide], which IC50 is on record?
Its IC50 is 645 nM.

With `O=C(CCc1cccs1)Nc1ccc(NC(=O)N2CCc3ccccc3C2)cc1` [Example 33, N-(4-{[3-(2-thienyl)propanoyl]amino}phenyl)-3,4-dihydroisoquinoline-2(1H)-carboxamide] as the compound, how does the IC50 read?
Its IC50 is 40.4 nM.

Which IC50 does the source give for `CCC(C)CC(=O)Nc1ccc(NC(=O)N2CCc3ccccc3C2)cc1` (racemic) [Example 69, N-{4-[((3R)-3-methylpentanoyl)amino]phenyl}-3,4-dihydroisoquinoline-2(1H)-carboxamide and N-{4-[((3S)-3-methylpentanoyl)amino]phenyl}-3,4-dihydroisoquinoline-2(1H)-carboxamide] here?
The IC50 was 6.49 nM.
